This note sets out measurements from paper PMC4452638, “Synthesis and preclinical evaluation of DOTAGA-conjugated PSMA ligands for functional imaging and endoradiotherapy of prostate cancer” (EJNMMI Research, 2014).

Data set [1] has as its target T1, PSMA (Homo sapiens, UniProt Q04609).
T1 construct: host or cells: LNCaP human prostate carcinoma cells
Kind of data set: Competitive PSMA binding assay on LNCaP cells with ([125I]I-BA)KuE as radioligand. Particulars: LNCaP cells 150,000/well, ([125I]I-BA)KuE c = 0.2 nM, HBSS (1% BSA), 4°C, 1 h, mean ± SD (n = 3); read-out: IC50 (PSMA affinity). The method, then:
(§1) Cell culture: PSMA^+ LNCaP cells (CLS: 300265) were grown in DMEM/Nutrition Mix F-12 with Glutamax-I (1:1) (Invitrogen, Life Technologies, Darmstadt, Germany) supplemented with 10% FCS. Cultures were maintained at 37°C in a 5% CO2/humidified air atmosphere. One day prior to the experiment, cells were harvested using Trypsin/EDTA (0.05% and 0.02%) in PBS, centrifuged and resuspended with culture medium. For cell counting, a Countesse automated cell counter (Invitrogen, Carlsbad, USA) was used. All in vitro binding and internalization studies were performed using live cells seeded 1 day prior to the experiment. For IC50 determination, 150,000 cells/mL were transferred to 24-well plates (1 mL/well), and for internalization studies, 125,000 cells/mL were transferred into PLL-coated 24-well plates.
Then, 25 μL/well of either HBSS (1% BSA; control) or of solutions containing the respective unlabelled ligand of interest in increasing concentrations (10^-10-10^-4 M in HBSS (1% BSA)) was added, followed by the addition of 25 μL of ([^125I]I-BA)KuE in HBSS (1% BSA). Experiments were carried out in triplicate for each concentration. The final radioligand concentration was 0.2 nM in all binding assays. Cells were incubated on ice for 60 min. Incubation was terminated by the removal of the incubation medium. Cells were thoroughly rinsed with 250 μL of HBSS. The wash medium was combined with the supernatant of the previous step. This fraction represents the amount of free radioligand. Cells were then lysed using 250 μL of 1 N NaOH, the lysate was transferred to vials and combined with 250 μL of HBSS used for rinsing the wells. Quantification of the amount of free and bound activity was performed in a γ-counter.
The PSMA binding affinities were determined in a competitive binding assay using LNCaP human prostate carcinoma cells and the known high affinity PSMA ligand ([^125I]I-BA)KuE [10] (c = 0.2 nM) as the radioligand. The IC50 values for the metal-free PSMA-inhibiting compounds and their respective ^natGa and ^natLu complexes are summarized in Table 1. HBED-CC-Ahx-KuE and [^natGa]HBED-CC-Ahx-KuE [12] were included in this study as reference compounds.

In data set [2] the test system is PSMA-expressing LNCaP cells. Kind of data set: Internalization studies / cell binding in LNCaP cells. Type of data set: cell-based, human. Particulars: 37°C, 1 h, 125,000 cells/well, corrected for unspecific binding. On the procedure:
as §1
Internalization studies: The culture medium was removed, and the cells were washed once with 500 μL DMEM-F12 (5% BSA) before being left to equilibrate in 200 μL DMEM-F12 (5% BSA) at 37°C for a minimum of 15 min. Then, 25 μL (per well) of either DMEM-F12 (5% BSA) or of a 100-μM PMPA solution (blocking) was added, followed by the addition of 25 μL of ^68Ga/^177Lu-labelled PSMA ligand. The final radioligand concentration was 0.2/0.5 nM in all internalization assays. To determine internalization kinetics, cells were then incubated at 37°C for 5, 15, 30 and 60 min, respectively. Experiments were carried out in triplicate for each time point (control and blocking). Incubation was terminated by placing the plate on ice for approximately 1 min and by subsequent removal of the incubation medium. Cells were thoroughly rinsed with 250 μL of PBS. The wash medium was combined with the supernatant of the previous step. This fraction represents the amount of free radioligand. To remove receptor surface bound radioactivity, the cells were then incubated for 10 min with 250 μL of ice cold PMPA solution (10 μM in PBS). After removal of the supernatant, the cells were thoroughly rinsed with another 250 μL of ice cold PBS. Both fractions were combined. The internalized activity was released by incubation with 250 μL of 1 N NaOH, transferred to vials and combined with 250 μL of 1 N NaOH used for rinsing the wells. Quantification of the amount of free, PMPA-releasable and internalized activity was performed in a γ-counter.
The cellular uptake and internalization kinetics of the different ^68Ga- and ^177Lu-labelled PSMA ligands was determined using PSMA-expressing LNCaP cells. In the case of the ^68Ga-labelled compounds, the final peptide concentration in the assays was 0.2 nM. […] All internalization studies were accompanied by reference studies using ([^125I]I-BA)KuE (c = 0.2 nM). This experimental setup allows data normalization and eliminates the influence of cell count and cell viability on absolute cellular tracer uptake. […] Furthermore, to be able to discriminate between total cellular activity (sum of membrane associated and internalized activity) and internalized activity, all incubations were followed by a washing step with 10 μM PMPA at 4°C to remove specifically cell-surface bound radioligand by displacement.

Data set [3] is described as follows: Determination of lipophilicity (shake flask, n-octanol/PBS). Type of data set: physicochemical. The method, then:
To a solution of 0.5 to 1 MBq of radiolabelled peptide in 500 μl of phosphate-buffered saline (PBS, pH 7.4), 500 μl of n-octanol was added (n = 6). Vials were vortexed vigorously for 3 min. To achieve quantitative phase separation, the vials were centrifuged at 6,000 g for 5 min in a Biofuge 15 (Heraeus Sepatech, Osterode, Germany). The activity concentrations in 100 μl-samples of both the aqueous and the organic phase were measured in a γ-counter. Both the partition coefficient P(o/w), which is defined as the molar concentration ratio of a single species A between n-octanol and water at equilibrium, and logP(o/w), which is an important parameter used to characterize lipophilicity of a compound, were calculated.
The partition coefficient logP between n-octanol and PBS was determined for the compounds listed in Table 3 using the shake flask method. All compounds are highly hydrophilic, with the DOTAGA compounds being up to one order of magnitude more hydrophilic than the corresponding DOTA analogues. Amongst all compounds tested, [^68Ga]HBED-CC-Ahx-KuE was the most hydrophilic compound.

Data set [4] has as its system LNCaP tumour xenograft. In words: Biodistribution in LNCaP-tumour-bearing mice. Type of data set: in vivo. As to conditions: LNCaP-tumour bearing CD-1 nu/nu mice, 1 h p.i. On the procedure:
All animal experiments were conducted in accordance with general animal welfare regulations in Germany (Deutsches Tierschutzgesetz, approval #55.2-1-54-2532-71-13). The prostate cancer cell line LNCaP was suspended 1/1 in serum-free medium and Matrigel (BD Biosciences, Germany) and approximately 10^7 cells in 200 μL were inoculated subcutaneously on the right shoulder of 6 to 8 weeks old CD-1 nu/nu mice (Charles River Laboratories). Tumours were grown for 2 to 4 weeks (males) and 4 to 6 weeks (females) to reach 4 to 8 mm in diameter.
Biodistribution: The ^68Ga-labelled PSMA ligands (approximately 7 to 15 MBq, 0.1 to 0.2 nmol) were injected into the tail vein of isoflurane anesthetized animals. The organ distribution was examined 1 h p.i. and quantified in a γ-counter.
A comparison of the biodistribution of compounds ^68Ga-11, ^68Ga-12 and the reference [^68Ga]HBED-CC-Ahx-KuE in LNCaP-tumour-bearing CD-1 nu/nu mice (1 h p.i.) is shown in Figure 7.

The nature of data set [5]: DTPA challenge (TLC analysis). Type of data set: physicochemical. As to conditions: DTPA challenge 0.4 M, RT, 48 h. The method, then:
(§2) ^177Lu-10 and ^177Lu-11 were incubated in 80 μL of human serum (37°C) and 80 μL 0.4 M DTPA solution (RT), respectively and after 1, 24 and 48 h, the stability was determined by TLC analysis. The ^68Ga-labelled tracers (40 to 45 MBq) were injected into the tail vein of CD-1 nu/nu mice. The animals were sacrificed after 30 min, and urine, blood and kidney samples were taken. The kidney was frozen in liquid nitrogen, homogenized with a ball mill and extracted with 0.2 to 1 mL PBS containing 200 nmol 2-(phosphonomethyl)pentane-1,5-dioic acid (PMPA). The suspension was first centrifuged (15,000 g), and after ultrafiltration, the extracts were analysed by RP-HPLC. The blood samples were centrifuged to separate the plasma from the blood cells. Plasma proteins were removed by precipitation with acetonitrile (10 min, 4°C) and subsequent centrifugation and ultrafiltration. The blood extract was also analysed by RP-HPLC.
(§3) The stability of ^177Lu-10 and ^177Lu-11 was investigated by incubation in human serum for 48 h at 37°C and by DTPA challenge (0.4 M, RT, 48 h) and subsequent TLC analysis. Release of ^177Lu^III from the complexes was not observed under the respective experimental conditions in the examined time frame.

Data set [6] in a line: Stability in human serum (TLC analysis). Format: in vitro ADME. As to conditions: 37°C, 48 h. On the procedure: as §2, §3
Where [7] appears, read: n-octanol/PBS pH 7.4, mean ± SD (n = 6).

T1 sequence (Q04609 whole entry): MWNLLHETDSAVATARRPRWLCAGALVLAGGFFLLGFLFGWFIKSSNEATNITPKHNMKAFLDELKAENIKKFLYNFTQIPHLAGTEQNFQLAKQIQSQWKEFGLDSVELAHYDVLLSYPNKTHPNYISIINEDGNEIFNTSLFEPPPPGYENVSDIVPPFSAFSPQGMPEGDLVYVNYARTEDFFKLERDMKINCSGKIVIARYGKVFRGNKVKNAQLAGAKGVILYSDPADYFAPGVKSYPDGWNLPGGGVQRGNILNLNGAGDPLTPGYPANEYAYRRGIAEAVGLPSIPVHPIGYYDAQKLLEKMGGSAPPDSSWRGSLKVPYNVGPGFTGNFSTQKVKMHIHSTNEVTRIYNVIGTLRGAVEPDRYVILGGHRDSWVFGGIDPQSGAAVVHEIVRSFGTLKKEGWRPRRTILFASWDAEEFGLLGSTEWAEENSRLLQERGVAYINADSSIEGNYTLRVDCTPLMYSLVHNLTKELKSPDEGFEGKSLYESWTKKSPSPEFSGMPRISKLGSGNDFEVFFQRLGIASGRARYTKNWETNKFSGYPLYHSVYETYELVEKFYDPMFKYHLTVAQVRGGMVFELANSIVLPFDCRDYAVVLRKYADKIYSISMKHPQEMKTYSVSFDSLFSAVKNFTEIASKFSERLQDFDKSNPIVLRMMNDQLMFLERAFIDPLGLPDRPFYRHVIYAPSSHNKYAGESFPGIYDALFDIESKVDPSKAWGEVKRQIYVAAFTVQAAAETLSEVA

Consider `O=C(O)CCc1ccc(O)c(CN(CCN(CC(=O)O)Cc2cc(CCC(=O)NCCCCCC(=O)NCCCC[C@H](NC(=O)N[C@@H](CCC(=O)O)C(=O)O)C(=O)O)ccc2O)CC(=O)O)c1` [HBED-CC-Ahx-KuE, reference compound], for which, in data set [1], the IC50 (commonly the concentration needed to halve the response being measured) is 0.0057 ± 0.0005 µM.
On to `O=C(O)CC[C@H](NC(=O)N[C@@H](CCCCNC(=O)CCCCCCC(=O)NCCCC[C@H](NC(=O)[C@H](Cc1ccccc1)NC(=O)[C@H](Cc1ccccc1)NC(=O)CN1CCN(CC(=O)O)CCN(CC(=O)O)CCN(CC(=O)O)CC1)C(=O)O)C(=O)O)C(=O)O` [compound 10, DOTA-FFK(Sub-KuE), reference compound], for which the IC50 in data set [1] was 0.0131 ± 0.0023 µM.
As for `O=C(O)CC[C@H](NC(=O)N[C@@H](CCCCNC(=O)CCCCCCC(=O)NCCCC[C@H](NC(=O)[C@H](Cc1ccccc1)NC(=O)[C@H](Cc1ccccc1)NC(=O)CCC(C(=O)O)N1CCN(CC(=O)O)CCN(CC(=O)O)CCN(CC(=O)O)CC1)C(=O)O)C(=O)O)C(=O)O` (some centres unmarked) [compound 11, DOTAGA-FFK(Sub-KuE)], the IC50 in data set [1] worked out at 0.0102 ± 0.0015 µM.
Same read-out and setting: then `O=C(O)CC[C@H](NC(=O)N[C@@H](CCCCNC(=O)CCCCCCC(=O)NCCCC[C@@H](NC(=O)[C@@H](Cc1ccccc1)NC(=O)[C@@H](Cc1ccccc1)NC(=O)CCC(C(=O)O)N1CCN(CC(=O)O)CCN(CC(=O)O)CCN(CC(=O)O)CC1)C(=O)O)C(=O)O)C(=O)O` (some centres unmarked) [compound 12, DOTAGA-ffk(Sub-KuE)], with 0.0139 ± 0.0004 µM.
Take “[^68Ga]DOTA-FFK(Sub-KuE) [^68Ga-10, reference compound]”: the “Internalization (1 h) in % of ([125I]I-BA)KuE” value (“Internalization (1 h) in %” below) in data set [2] (68Ga compounds, c = 0.2 nM) is given as 14.6 ± 0.8%. Further, the “log P (o/w)” value in data set [3] (setting [7]) is listed as −3.1 ± 0.2.
“[^68Ga]HBED-CC-Ahx-KuE [reference compound]”: in data set [4], the “Tracer uptake into liver” value is recorded as 0.5 ± 0.1 % ID/g, the “Tracer uptake into lung” value is given as 1.9 ± 0.4 % ID/g, the “Tracer uptake into pancreas” value amounted to 0.9 ± 0.2 % ID/g and the “Tracer uptake into spleen” value is listed as 14.7 ± 2.6 % ID/g. In addition, in data set [4], the Tumour-to-blood ratio amounted to 12.5 ± 0.7, the Tumour-to-skeletal muscle ratio was 16.2 ± 0.1 and the “Uptake into LNCaP tumour xenograft” value amounted to 4.7 ± 0.2 % ID/g. For the same compound, in data set [2] (68Ga compounds, c = 0.2 nM), the “Internalization (1 h) in %” value was 91.1 ± 1.7%. Moreover, the “log P (o/w)” value in data set [3] (setting [7]) is −4.1 ± 0.1.
“[^177Lu]DOTA-FFK(Sub-KuE) [^177Lu-10, reference compound]”: the “Internalization (1 h) in %” value in data set [2] (177Lu compounds, c = 0.5 nM) came out at 19.3 ± 0.9%. For the same compound, the “Release of 177Lu(III) from the complex” value in data set [5] and in data set [6] was “not observed” in each case. Moreover, the “log P (o/w)” value in data set [3] (setting [7]) is −2.7 ± 0.02.
[^177Lu]DOTAGA-FFK(Sub-KuE) [^177Lu-11]: in data set [2] (177Lu compounds, c = 0.5 nM), the “Internalization (1 h) in %” value worked out at 36.1 ± 1.1%. For the same compound, the “Release of 177Lu(III) from the complex” value in data set [5] and in data set [6] was “not observed” throughout. Further, the “log P (o/w)” value in data set [3] (setting [7]) was −3.9 ± 0.1.
Take [^177Lu]DOTAGA-ffk(Sub-KuE) [^177Lu-12]: the “Internalization (1 h) in %” value in data set [2] (177Lu compounds, c = 0.5 nM) came to 44.4 ± 1.8%. Also, in data set [3] (n-octanol/PBS, listed for 11/12 but determined for the FFK analogue 11 only (footnote a)), the “log P (o/w)” value is on record as −3.9 ± 0.1.
For “[^natGa]DOTA-FFK(Sub-KuE) [^natGa-10, reference compound]”, the half-maximal inhibitory concentration (IC50) in data set [1] was 0.0295 ± 0.0066 µM.
Still for that read-out and setting: then [^natGa]DOTAGA-FFK(Sub-KuE) [^natGa-11], with 0.0121 ± 0.0039 µM.
In the case of [^natGa]DOTAGA-ffk(Sub-KuE) [^natGa-12], the IC50 in data set [1] amounted to 0.0159 ± 0.0005 µM.
As to “[^natGa]HBED-CC-Ahx-KuE [reference compound]”, the IC50 in data set [1] amounted to 0.0061 ± 0.0008 µM.
As for “[^natLu]DOTA-FFK(Sub-KuE) [^natLu-10, reference compound]”, in data set [1], the IC50 turned out to be 0.0547 ± 0.0061 µM.
With [^natLu]DOTAGA-FFK(Sub-KuE) [^natLu-11], the IC50 in data set [1] came to 0.0151 ± 0.0015 µM.
Still for that read-out and setting: then [^natLu]DOTAGA-ffk(Sub-KuE) [^natLu-12], with 0.0131 ± 0.0022 µM.
